Laboratory results published in patent US5075287A, “Muramyl peptide derivatives and immunoregulating compositions containing them” (priority 1989, dated 1991).
Read-outs that look alike come from different tables or passages of the source.

Columns and labels:
[1] = test system: hepatitis B virus surface antigen (HBs); assay: Hepatitis-vaccine enhancing activity (adjuvant activity): anti-HBs IgG in mouse serum by ELISA; type: in vivo, female CDF1 mice
Protocol: A compound of the present invention was dissolved in lipidmicrosphere (1 mg/ml). On the other hand, a solution of hepatitis B virus surface antigen (HBs) in physiological saline was prepared (50 μg/ml). The above solutions in equal amounts were mixed to prepare a test solution. A control solution was prepared by the exclusion of the compound of the present invention from said test solution. A mixture of a suspension of aluminium hydroxide gel in physiological saline (1 mg/ml) and said hepatitis vaccine preparation in equal amounts was prepared as another control solution. The test solution (0.2 ml) was intraperitoneally administered to each mouse in one group consisting of seven female CDF1 mice.
Blood samples were collected from the fundus ocluli vein of each mouse every week after the administration and then centrifuged to obtain serums. Three weeks after the administration, 0.2 ml of the test liquid was intraperitoneally administered again to each mouse for secondary stimulation. Then blood collecting was conducted every week to obtain serums after the application of the secondary stimulation, in the same manner as that described above.
The amount of the IgG antibodies against the hepatitis B virus surface antigens (HBs) in the serums thus obtained was determined with an ELISA method.

[2] = test system: influenza HA vaccine (B/Nagasaki/1/87 strain); type: in vivo, female CDF1 mice
[3] = test system: L-1210 mouse leukemia cells; assay: Activation of macrophages (growth inhibition of tumor cells by intraperitoneal macrophages of treated mice, MTT assay); type: cell-based; conditions: macrophages taken 3 days after i.p. 0.2 ml of 500 μg/ml, macrophage:L-1210 20:1, 72 hours
Protocol: A compound of the present invention was dissolved in lipidmicrosphere to obtain a solution in a concentration of 500μg/ml, and 0.2 ml of such solution was intraperitoneally administered to each mouse in one group consisting of seven female CDF1 mice. Intraperitoneal macrophages obtained three days after the administration and L-1210 mouse leukemia cells were mixed in the ratio of cell numbers of 20:1, respectively. Two hundred μl of the mixture was placed in each well of one sheet of 96 well microtiter plate. After 72 hours, the increase of the cell number in each well was determined by a MTT assay method. The ratio of the cell number for the mixture of the L-1210 cells and the macrophage relative to the cell number for the L-1210 cells only(growth inhibitory ratio) was determined, and the results are shown in Table 3.

[4] = Experiment 1, 1 W after i.p. administration, 5000-fold dilution, compound in lipidmicrosphere + HBs
[5] = Experiment 1, 2 W, 5000-fold dilution
[6] = Experiment 1, 3 W, 5000-fold dilution
[7] = Experiment 1, 4 W (after secondary stimulation at 3 weeks), 5000-fold dilution
[8] = Experiment 1, 5 W (after secondary stimulation at 3 weeks), 5000-fold dilution
[9] = Experiment 1, 1 W after i.p. administration, 5000-fold dilution, compound in lipidmicrosphere + HA vaccine
[10] = Experiment 2, 1 W, 2000-fold dilution
[11] = Experiment 2, 2 W, 2000-fold dilution
[12] = Experiment 2, 3 W, 2000-fold dilution
[13] = Experiment 2, 4 W (after secondary stimulation at 3 weeks), 2000-fold dilution
[14] = Experiment 2, 5 W (after secondary stimulation at 3 weeks), 2000-fold dilution
[15] = Experiment 2, 1 W, 8000-fold dilution
[16] = Experiment 2, 2 W, 8000-fold dilution
[17] = Experiment 2, 3 W, 8000-fold dilution
[18] = Experiment 2, 4 W (after secondary stimulation at 3 weeks), 8000-fold dilution
[19] = Experiment 2, 5 W (after secondary stimulation at 3 weeks), 8000-fold dilution

| SMILES | Anti-HBs IgG antibody level in serum (ELISA absorbance at 415 nm) [1, 4] [O.D 415 nm] | Anti-HBs IgG antibody level in serum (ELISA absorbance at 415 nm) [1, 5] [O.D 415 nm] | Anti-HBs IgG antibody level in serum (ELISA absorbance at 415 nm) [1, 6] [O.D 415 nm] | Anti-HBs IgG antibody level in serum (ELISA absorbance at 415 nm) [1, 7] [O.D 415 nm] | Anti-HBs IgG antibody level in serum (ELISA absorbance at 415 nm) [1, 8] [O.D 415 nm] | Anti HA serum antigen value (average value ± S.D.) [2, 9] [O.D 415 nm] | Anti HA serum antigen value (average value ± S.D.) [2, 5] [O.D 415 nm] | Anti HA serum antigen value (average value ± S.D.) [2, 6] [O.D 415 nm] | Anti HA serum antigen value (average value ± S.D.) [2, 7] [O.D 415 nm] | Anti HA serum antigen value (average value ± S.D.) [2, 8] [O.D 415 nm] | Growth inhibitory ratio of L-1210 mouse leukemia cells [3] [%] | Anti-HBs IgG antibody level in serum (ELISA absorbance at 415 nm) [1, 10] [O.D 415 nm] | Anti-HBs IgG antibody level in serum (ELISA absorbance at 415 nm) [1, 11] [O.D 415 nm] | Anti-HBs IgG antibody level in serum (ELISA absorbance at 415 nm) [1, 12] [O.D 415 nm] | Anti-HBs IgG antibody level in serum (ELISA absorbance at 415 nm) [1, 13] [O.D 415 nm] | Anti-HBs IgG antibody level in serum (ELISA absorbance at 415 nm) [1, 14] [O.D 415 nm] | Anti HA serum antigen value (average value ± S.D.) [2, 15] [O.D 415 nm] | Anti HA serum antigen value (average value ± S.D.) [2, 16] [O.D 415 nm] | Anti HA serum antigen value (average value ± S.D.) [2, 17] [O.D 415 nm] | Anti HA serum antigen value (average value ± S.D.) [2, 18] [O.D 415 nm] | also measured |
| --- | --- | --- | --- | --- | --- | --- | --- | --- | --- | --- | --- | --- | --- | --- | --- | --- | --- | --- | --- | --- | --- |
| CCCCCCCCCCCCCCC(CCCCCCCCCCCCCC)C(=O)O[C@H]1O[C@H](CO)[C@@H](O)[C@H](O[C@H](C)C(=O)N[C@@H](C)C(=O)N[C@H](CCC(=O)OC)C(N)=O)[C@H]1NC(C)=O [Example 1] | 0.001 ± 0.001 | 0.018 ± 0.000 | 0.074 ± 0.002 | 0.815 ± 0.011 | 0.843 ± 0.005 | 0.007 ± 0.003 | 0.174 ± 0.003 | 0.232 ± 0.003 | 1.243 ± 0.036 | 1.201 ± 0.002 | 40.0 |  |  |  |  |  |  |  |  |  |  |
| CCCCCCCCCCCCCCC(CCCCCCCCCCCCCC)C(=O)S[C@@H]1O[C@H](CO)[C@@H](O)[C@H](O[C@H](C)C(=O)N[C@@H](C)C(=O)N[C@H](CCC(=O)OC)C(N)=O)[C@H]1NC(C)=O [Example 2] | 0 | 0.023 ± 0.000 | 0.076 ± 0.001 | 0.975 ± 0.008 | 0.930 ± 0.004 | 0.003 ± 0.001 | 0.172 ± 0.004 | 0.420 ± 0.005 | 0.447 ± 0.029 | 1.418 ± 0.035 | 41.3 |  |  |  |  |  |  |  |  |  |  |
| CCCCCCCCCCCCCC(=O)O[C@H](CCCCCCCCCCC)CC(=O)O[C@H]1O[C@H](CO)[C@@H](O)[C@H](O[C@H](C)C(=O)N[C@@H](C)C(=O)N[C@H](CCC(=O)OC)C(N)=O)[C@H]1NC(C)=O [Example 3, N-[2-0-{2-Acetamido-2,3-dideoxy-1-0-((3R)-3-tetradecanoyloxytetradecanoyl)-α-D-glucopyranos-3-yl}-D-lactoyl]-L-alanyl-D-isoglutamine methylester] | 0 | 0.027 ± 0.001 | 0.064 ± 0.003 | 0.631 ± 0.006 | 0.692 ± 0.009 | 0.009 ± 0.000 | 0.182 ± 0.003 | 0.292 ± 0.004 | 0.122 ± 0.020 | 1.140 ± 0.013 | 42.6 |  |  |  |  |  |  |  |  |  |  |
| CCCCCCCCCCCCCC(=O)O[C@H](CCCCCCCCCCC)CC(=O)S[C@@H]1O[C@H](CO)[C@@H](O)[C@H](O[C@H](C)C(=O)N[C@@H](C)C(=O)N[C@H](CCC(=O)OC)C(N)=O)[C@H]1NC(C)=O [Example 4, N-[2-0-{2-Acetamido-2,3-dideoxy-1-S-[[3R)-3-tetradecanoyloxytetradecanoyl)-1-thio-β-D-glucopyranos-3-yl}-D-lactoyl]-L-alanyl-D-isoglutamine methylester] | 0 | 0.073 ± 0.001 | 0.111 ± 0.007 | 0.848 ± 0.009 | 0.935 ± 0.022 | 0.004 ± 0.001 | 0.215 ± 0.001 | 0.381 ± 0.004 | 1.204 ± 0.012 | 1.150 ± 0.016 | 45.2 |  |  |  |  |  |  |  |  |  |  |
| CCCCCCCCCCCCCCCCCCCCCCCC(=O)O[C@H](CCCCCCCCCCC)CC(=O)S[C@@H]1O[C@H](CO)[C@@H](O)[C@H](O[C@H](C)C(=O)N[C@@H](C)C(=O)N[C@H](CCC(=O)OC)C(N)=O)[C@H]1NC(C)=O [Example 27, N-[2-0-{2-Acetamido-2,3-dideoxy-1-S-((3R)-3-tetracosanoyloxytetradecanoyl)-1-thio-β-D-glucopyranos-3-yl}-D-lactoyl]-L-alanyl-D-isoglutamine methylester] |  |  |  |  |  |  |  |  |  |  |  | 0.003 ± 0.003 | 0.031 ± 0.002 | 0.052 ± 0.000 | 0.580 ± 0.016 | 0.573 ± 0.013 | 0 | 0.110 ± 0.003 | 0.161 ± 0.003 | 0.751 ± 0.004 | Anti HA serum antigen value (average value ± S.D.) [2, 19]: 0.805 ± 0.008 O.D 415 nm |
| CCCCCCCCCCCCCCCCCCCCCCCC(=O)O[C@H](CCCCCCCCCCC)CC(=O)S[C@@H]1O[C@H](COC(=O)CCCCCCCCCCCCCCCCC)[C@@H](O)[C@H](O[C@H](C)C(=O)N[C@@H](C)C(=O)N[C@H](CCC(=O)OC)C(N)=O)[C@H]1NC(C)=O [Example 28, N-[2-0-{2-Acetamido-2,3-dideoxy-6-0-octadecanoyl-1-S-((3R}-3-tetracosanoyloxytetradecanoyl)-1-thio-β-D-glucopyranos-3-Yl}-D-lactoyl]-L-alanyl-D-isoglutamine methylester] |  |  |  |  |  |  |  |  |  |  |  | 0.005 ± 0.003 | 0.062 ± 0.004 | 0.086 ± 0.004 | 0.611 ± 0.018 | 0.543 ± 0.029 | 0.008 ± 0.004 | 0.041 ± 0.004 | 0.061 ± 0.001 | 0.787 ± 0.018 | Anti HA serum antigen value (average value ± S.D.) [2, 19]: 0.779 ± 0.024 O.D 415 nm |
